The nature of data set [1]: Determining formaldehyde in the gas phase above preservatives (Dräger tubes 0.2/a). Format: physicochemical. The method, then: 1. Method of Determining Formaldehyde in the Gas Phase
(§1) • The determination of the formaldehyde content in the gas phase above various preservatives was carried out using Dräger tubes 0.2/a (No. 6733081) in accordance with the instructions for use from Dräger Safety AG & Co. KGaA (9th Edition, July 2001). For this purpose, about 100 g of the sample to be investigated were introduced into a 250 ml wide-necked beaker with a screw lid and left to stand, in the closed state, for at least 3 hours at room temperature. The measurement was read off after 2 strokes on the scale 0.5 to 5 ppm, n=10. […] 2. Method of Determining Ammonia (Amine) in the Gas Phase • The determination of the amine content in the gas phase above various preservatives was carried out using Dräger tubes 2/a (No. 6733231) in accordance with the instructions for use from Dräger Safety AG & Co. KGaA (9th Edition, July 2001). For this purpose, about 100 g of the sample to be investigated were introduced into a 250 ml wide-necked beaker with a screw lid and left to stand, in the closed state, for at least 3 hours at room temperature. The measurement was read off after one stroke on the scale. […] 3. Formaldehyde and Amine Emissions of Preservatives • In the gas phase of preservatives formulated as described below, using the methods described under 1. and 2., the following formaldehyde and amine concentrations were measured in the gas phase (Table 1): • Preservatives A, B and C were prepared by adding urea and monoethylene glycol dissolved in water to Grotan® OX and stripping off the water on a rotary evaporator (2 hours at 60° C. and 30 mbar). Preservative D (comparative) was prepared by adding monoethylene glycol to Grotan® OX.

Data set [2] is described as follows: Determining ammonia (amine) in the gas phase above preservatives (Dräger tubes 2/a). Format: physicochemical. Particulars: amine as NH3. The procedure: as §1

For `CC1CN(CN2COC(C)C2)CO1` (stereo not drawn) [Example E, N,N′-methylenebis(5-methyloxazolidine)], the “ppm of HCHO” value in data set [1] (After 2 weeks (gas phase)) is 3-5 ppm; in data set [1] (After 11 weeks (gas phase)), 0.7 ppm; in data set [1] (After 4 days (gas phase)) it was 3 ppm. The ppm of amine in data set [2] (After 2 weeks (gas phase)) is on record as 15 ppm; in data set [2] (After 11 weeks (gas phase)), 13 ppm; in data set [2] (After 4 days (gas phase)) it was 10 ppm.
